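GI50 marks 50% less growth. TGI: total growth inhibition.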
Key:
Assay in all cases: NCI anticancer screen, dose series, 384-well format
[1] = system: NCI/ADR-RES ovarian
[2] = system: HCC-2998 colon
[3] = system: SK-MEL-5 melanoma
[4] = system: RXF 393 renal
[5] = system: K-562 leukemia
[6] = system: UO-31 renal
[7] = system: SW-620 colon
[8] = system: SF-539 CNS
[9] = system: CAKI-1 renal
[10] = system: BT-549 breast
[11] = system: SF-268 CNS
[12] = system: DU-145 prostate
[13] = system: HOP-92 NSCLC
[14] = system: OVCAR-8 ovarian
[15] = system: MALME-3M melanoma
[16] = system: NCI-H23 lung
[17] = system: T-47D breast
[18] = system: HS 578T breast
[19] = system: ACHN renal
[20] = system: HOP-62 NSCLC
[21] = system: IGROV1 ovarian
[22] = system: TK-10 renal
[23] = system: NCI-H522 lung
[24] = system: A549 NSCLC
[25] = system: OVCAR-4 ovarian
[26] = system: MCF7 breast
[27] = system: HL-60(TB) leukemia
[28] = system: LOX IMVI melanoma
[29] = system: A498 renal
[30] = system: U251 glioblastoma
[31] = system: CCRF-CEM leukemia
[32] = system: HCT-15 colon
[33] = system: UACC-62 melanoma
[34] = system: NCI-H322M lung
[35] = system: SK-MEL-28 melanoma
[36] = system: OVCAR-5 ovarian
[37] = system: MDA-MB-435 melanoma
[38] = system: RPMI-8226 leukemia
[39] = system: OVCAR-3 ovarian
[40] = system: MDA-MB-231 breast
[41] = system: 786-0 renal
[42] = system: PC-3 prostate
[43] = system: SK-OV-3 ovarian
[44] = system: SF-295 CNS
[45] = system: HT29 colon
[46] = system: NCI-H460 NSCLC
[47] = system: M14 melanoma
[48] = system: NCI-H226 lung
[49] = system: MOLT-4 leukemia
[50] = system: COLO 205 colon
[51] = system: UACC-257 melanoma
[52] = system: HCT-116 colon
[53] = system: EKVX NSCLC
[54] = system: KM12 colon
[55] = system: SNB-75 CNS
[56] = system: SN12C renal
[57] = system: SNB-19 CNS
[58] = system: SR leukemia
[59] = system: MDA-MB-468 breast

Work on `CNC(=O)c1ccccc1Nc1cc(Nc2ccc(N3CCOCC3)cc2OC)ncc1C(F)(F)F` yielded a GI50 [1] of 1.52 µM, a TGI [1] of 4.64 µM and a GI50 [2] of 0.654 µM. It also gave a TGI [2] of 15.8 µM, a GI50 [3] of 0.767 µM and a TGI [3] of 18 µM. The GI50 [4] was 2.82 µM, the TGI [4] was 14 µM and the GI50 [5] was 2.69 µM. It also gave a TGI [5] greater than 100 µM, a GI50 [6] of 2.9 µM and a TGI [6] of 16.9 µM. The GI50 [7] was 0.658 µM, the TGI [7] was 12.6 µM and the GI50 [8] was 1.7 µM. The TGI [8] was 16.8 µM, the GI50 [9] was 6.33 µM and the TGI [9] was 21 µM. The GI50 [10] was 2.82 µM, the TGI [10] was 9.86 µM and the GI50 [11] was 0.143 µM. For the same compound, the TGI [11] was 1.67 µM, the GI50 [12] was 1.97 µM and the TGI [12] was 24.3 µM. For the same compound, the GI50 [13] was 1.02 µM, the TGI [13] was 10.2 µM and the GI50 [14] was 4.08 µM. It also gave a TGI [14] of 19.8 µM, a GI50 [15] of 0.303 µM and a TGI [15] of 15.1 µM. It also gave a GI50 [16] of 0.277 µM, a TGI [16] of 9.47 µM and a GI50 [17] of 9.99 µM. For the same compound, the TGI [17] was 23.3 µM, the GI50 [18] was 2.78 µM and the TGI [18] was 10.1 µM. For the same compound, the GI50 [19] was 5.62 µM, the TGI [19] was 69.7 µM and the GI50 [20] was 2.62 µM. It also gave a TGI [20] of 51.3 µM, a GI50 [21] of 0.229 µM and a TGI [21] of 12.4 µM. The GI50 [22] was 7.3 µM, the TGI [22] was 32 µM and the GI50 [23] was 0.877 µM. For the same compound, the TGI [23] was 20.4 µM, the GI50 [24] was 0.371 µM and the TGI [24] was 13 µM. It also gave a GI50 [25] of 16.1 µM, a TGI [25] greater than 100 µM and a GI50 [26] of 0.447 µM. It also gave a TGI [26] of 18.5 µM, a GI50 [27] of 0.375 µM and a TGI [27] of 1.43 µM. The GI50 [28] was 1.23 µM, the TGI [28] was 12.1 µM and the GI50 [29] was 11 µM. It also gave a TGI [29] of 28.3 µM, a GI50 [30] of 4.4 µM and a TGI [30] of 48 µM. For the same compound, the GI50 [31] was 0.722 µM, the TGI [31] was 11.5 µM and the GI50 [32] was 2.88 µM. For the same compound, the TGI [32] was 34.2 µM, the GI50 [33] was 0.354 µM and the TGI [33] was 14.4 µM. For the same compound, the GI50 [34] was 5.28 µM, the TGI [34] was 46.2 µM and the GI50 [35] was 2 µM. For the same compound, the TGI [35] was 16.7 µM, the GI50 [36] was 0.66 µM and the TGI [36] was 27.5 µM. It also gave a GI50 [37] of 0.752 µM, a TGI [37] greater than 100 µM and a GI50 [38] of 0.35 µM. For the same compound, the TGI [38] was 3.3 µM, the GI50 [39] was 4.45 µM and the TGI [39] was 37.9 µM. The GI50 [40] was 2.76 µM, the TGI [40] was 49.2 µM and the GI50 [41] was 2.75 µM. The TGI [41] was 19.8 µM, the GI50 [42] was 15.9 µM and the TGI [42] was greater than 100 µM. The GI50 [43] was 5.44 µM, the TGI [43] was 41.9 µM and the GI50 [44] was 2.12 µM. The TGI [44] was 38.7 µM, the GI50 [45] was 0.416 µM and the TGI [45] was 14.1 µM. The GI50 [46] was 0.316 µM, the TGI [46] was 10.6 µM and the GI50 [47] was 0.233 µM. The TGI [47] was 11.1 µM, the GI50 [48] was 0.876 µM and the TGI [48] was greater than 100 µM. It also gave a GI50 [49] of 0.969 µM, a TGI [49] of 10.5 µM and a GI50 [50] of 0.309 µM. The TGI [50] was 1.85 µM, the GI50 [51] was 0.397 µM and the TGI [51] was 23.3 µM. It also gave a GI50 [52] of 0.632 µM, a TGI [52] of 13.2 µM and a GI50 [53] of 0.653 µM. For the same compound, the TGI [53] was 11.8 µM, the GI50 [54] was 0.523 µM and the TGI [54] was 8.06 µM. It also gave a GI50 [55] of 4.25 µM, a TGI [55] of 21.4 µM and a GI50 [56] of 3.31 µM. For the same compound, the TGI [56] was 27.1 µM, the GI50 [57] was 10.9 µM and the TGI [57] was greater than 100 µM.

`COc1cccc2[nH]c3c4c(c5c(c3c12)C(=O)N(CN1CCN(C)CC1)C5=O)CCC4` showed a GI50 [1] of 8.24 µM, a TGI [1] of 21 µM and a GI50 [2] of 21 µM. The TGI [2] was 66.1 µM, the GI50 [3] was 3.44 µM and the TGI [3] was 14.3 µM. The GI50 [4] was 14.2 µM, the TGI [4] was 27.3 µM and the GI50 [8] was 9.75 µM. The TGI [8] was 21.8 µM, the GI50 [9] was 10.9 µM and the TGI [9] was 23.2 µM. For the same compound, the GI50 [10] was 15.8 µM, the TGI [10] was 29.6 µM and the GI50 [11] was 15.5 µM. It also gave a TGI [11] of 29.7 µM, a GI50 [12] of 14.4 µM and a TGI [12] of 27.9 µM. It also gave a GI50 [13] of 17.3 µM, a TGI [13] of 31.3 µM and a GI50 [14] of 9.47 µM. For the same compound, the TGI [14] was 23.1 µM, the GI50 [15] was 13.5 µM and the TGI [15] was 26.5 µM. It also gave a GI50 [16] of 14 µM, a TGI [16] of 27.3 µM and a GI50 [17] of 12.3 µM. The TGI [17] was 32 µM, the GI50 [18] was 15 µM and the TGI [18] was 29 µM. The GI50 [19] was 14.9 µM, the TGI [19] was 30.5 µM and the GI50 [20] was 11.5 µM. It also gave a TGI [20] of 24 µM, a GI50 [21] of 12.5 µM and a TGI [21] of 29.6 µM. It also gave a GI50 [22] of 10.7 µM, a TGI [22] of 22.7 µM and a GI50 [23] of 7.53 µM. The TGI [23] was 21.5 µM, the GI50 [24] was 12.5 µM and the TGI [24] was 26.3 µM. For the same compound, the GI50 [25] was 7.56 µM, the TGI [25] was 19.5 µM and the GI50 [26] was 12.5 µM. For the same compound, the TGI [26] was 26.9 µM, the GI50 [27] was 10.7 µM and the TGI [27] was 22.7 µM. It also gave a GI50 [28] of 13.7 µM, a TGI [28] of 26.9 µM and a GI50 [58] of 1.83 µM. The TGI [58] was 4.8 µM, the GI50 [29] was 9.22 µM and the TGI [29] was 21.5 µM. For the same compound, the GI50 [30] was 12.1 µM, the TGI [30] was 24.6 µM and the GI50 [32] was 11.5 µM. For the same compound, the TGI [32] was 24.8 µM, the GI50 [33] was 12.5 µM and the TGI [33] was 25.3 µM. The GI50 [34] was 14.4 µM, the TGI [34] was 27.8 µM and the GI50 [35] was 14.5 µM. It also gave a TGI [35] of 28.3 µM, a GI50 [36] of 20.7 µM and a TGI [36] of 48.7 µM. For the same compound, the GI50 [37] was 13.7 µM, the TGI [37] was 29.1 µM and the GI50 [38] was 13.3 µM. It also gave a TGI [38] of 26.2 µM, a GI50 [39] of 13.2 µM and a TGI [39] of 26.7 µM. It also gave a GI50 [40] of 16.1 µM, a TGI [40] of 29.9 µM and a GI50 [42] of 11.5 µM. It also gave a TGI [42] of 23.8 µM, a GI50 [43] of 11.2 µM and a TGI [43] of 23.6 µM. For the same compound, the GI50 [44] was 13.9 µM, the TGI [44] was 27.2 µM and the GI50 [45] was 13.2 µM. It also gave a TGI [45] of 27.1 µM, a GI50 [46] of 6.97 µM and a TGI [46] of 19.8 µM. The GI50 [47] was 14.3 µM, the TGI [47] was 28.7 µM and the GI50 [48] was 15.9 µM. For the same compound, the TGI [48] was 33.2 µM, the GI50 [49] was 6.13 µM and the TGI [49] was 19.1 µM. For the same compound, the GI50 [50] was 15.4 µM, the TGI [50] was 48.5 µM and the GI50 [51] was 17.8 µM. The TGI [51] was 33 µM, the GI50 [52] was 11.6 µM and the TGI [52] was 24.4 µM. The GI50 [53] was 15.4 µM, the TGI [53] was 29.1 µM and the GI50 [59] was 8.27 µM. The TGI [59] was 21.1 µM, the GI50 [54] was 15.8 µM and the TGI [54] was 34.2 µM. The GI50 [55] was 13 µM, the TGI [55] was 25.9 µM and the GI50 [56] was 12.5 µM. The TGI [56] was 40.6 µM, the GI50 [57] was 12.3 µM and the TGI [57] was 24.8 µM.

— PubChem BioAssay (NCI)
